Experimental data as given in paper PMC10980208, “A novel micellular fluorogenic substrate for quantitating the activity of 1-phosphatidylinositol 4,5-bisphosphate phosphodiesterase gamma (PLCγ) enzymes” (PLOS ONE, 2024).

Target: T1, PLCγ2-P522R (Homo sapiens, UniProt P16885, P522R)
T1 construct: gene PLCG2
T1 sequence (P16885 1-1195 P522R): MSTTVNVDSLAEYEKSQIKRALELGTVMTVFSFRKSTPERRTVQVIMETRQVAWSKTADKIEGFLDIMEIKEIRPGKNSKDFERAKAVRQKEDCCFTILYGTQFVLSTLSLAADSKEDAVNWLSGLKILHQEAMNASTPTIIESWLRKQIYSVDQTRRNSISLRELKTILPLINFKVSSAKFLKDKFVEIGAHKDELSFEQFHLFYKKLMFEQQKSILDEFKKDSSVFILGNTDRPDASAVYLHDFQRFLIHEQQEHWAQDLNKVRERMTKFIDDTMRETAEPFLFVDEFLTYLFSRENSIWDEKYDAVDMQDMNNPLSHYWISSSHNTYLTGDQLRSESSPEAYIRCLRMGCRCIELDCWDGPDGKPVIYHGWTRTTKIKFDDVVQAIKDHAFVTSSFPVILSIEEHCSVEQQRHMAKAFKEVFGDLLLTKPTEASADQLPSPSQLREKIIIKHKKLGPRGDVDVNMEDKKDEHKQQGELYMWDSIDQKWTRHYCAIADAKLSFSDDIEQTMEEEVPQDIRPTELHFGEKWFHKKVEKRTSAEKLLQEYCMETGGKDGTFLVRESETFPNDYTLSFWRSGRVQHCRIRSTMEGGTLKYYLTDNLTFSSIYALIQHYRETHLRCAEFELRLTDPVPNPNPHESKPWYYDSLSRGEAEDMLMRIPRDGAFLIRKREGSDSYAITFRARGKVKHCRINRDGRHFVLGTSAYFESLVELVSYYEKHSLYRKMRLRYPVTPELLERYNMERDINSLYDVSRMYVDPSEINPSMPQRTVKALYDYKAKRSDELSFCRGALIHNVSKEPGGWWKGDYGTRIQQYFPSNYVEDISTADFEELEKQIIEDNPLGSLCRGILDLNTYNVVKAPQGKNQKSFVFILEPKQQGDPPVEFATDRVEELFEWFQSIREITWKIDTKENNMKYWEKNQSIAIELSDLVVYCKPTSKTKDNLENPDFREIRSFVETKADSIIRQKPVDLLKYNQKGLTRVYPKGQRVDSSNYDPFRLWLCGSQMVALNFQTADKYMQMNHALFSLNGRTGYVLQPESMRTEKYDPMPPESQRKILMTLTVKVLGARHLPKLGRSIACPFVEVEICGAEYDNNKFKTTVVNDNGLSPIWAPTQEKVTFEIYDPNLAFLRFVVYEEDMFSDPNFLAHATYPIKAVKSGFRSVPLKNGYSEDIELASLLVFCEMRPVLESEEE
Assay: fluorogenic micelle enzyme assay
Assay type: biochemical

CCCCCCCCCCCCCCCCOc1cc(COC(=O)Nc2ccc3c(C(F)(F)F)cc(=O)oc3c2)ccc1OP(=O)(O)O[C@@H]1[C@H](O)[C@H](O)[C@@H](OP(=O)(O)O)[C@H](OP(=O)(O)O)[C@H]1O [C16CF3-coumarin]
fluorogenic micelle enzyme assay: both PLCγ1-D1665H and PLCγ2-P522R were able to process the C16CF3-coumarin substrate faster than the corresponding wild-type enzymes
